# ChEMBL document CHEMBL1201862, “PubChem BioAssay data set” (2004)
#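 Five concentrations, 48 hours, 96-well plates. GI50: concentration for 50% inhibition of growth.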 Activity calls are given as the source filed them. Rule as the data show it: active = GI50 up to about 1.1 µM and inactive = higher.
# Experiments:
# Experiment in all cases: DTP human tumour cell line panel, 48 h
# [1] = tested on: HCT-15
# [2] = tested on: SNB-75
# [3] = tested on: NCI-H226
# [4] = tested on: UACC-257
# [5] = tested on: SF-295
# [6] = tested on: SK-MEL-2
# [7] = tested on: MOLT-4
# [8] = tested on: SNB-78
# [9] = tested on: COLO 205
# [10] = tested on: HL-60
# [11] = tested on: XF498
# [12] = tested on: ACHN
# [13] = tested on: OVCAR-5
# [14] = tested on: LXFL 529
# [15] = tested on: CAKI-1
# [16] = tested on: SR
# [17] = tested on: M19-MEL
# [18] = tested on: U-251
# [19] = tested on: M14
# [20] = tested on: RXF 393
# [21] = tested on: OVCAR-4
# [22] = tested on: OVCAR-3
# [23] = tested on: HOP-62
# [24] = tested on: SNB-19
# [25] = tested on: 786-0
# [26] = tested on: TK-10
# [27] = tested on: LOX IMVI
# [28] = tested on: KM-20L2
# [29] = tested on: EKVX
# [30] = tested on: SK-MEL-28
# [31] = tested on: A498
# [32] = tested on: UO-31
# [33] = tested on: KM12
# [34] = tested on: SK-MEL-5
# [35] = tested on: HCT-116
# [36] = tested on: NCI-H23
# [37] = tested on: HT-29
# [38] = tested on: DMS-114
# [39] = tested on: RPMI-8226
# [40] = tested on: DMS-273
# [41] = tested on: SF-539
# [42] = tested on: SW-620
# [43] = tested on: Malme-3M
# [44] = tested on: NCI-H522
# [45] = tested on: OVCAR-8
# [46] = tested on: SF-268
# [47] = tested on: K562
# [48] = tested on: A549
# [49] = tested on: SN12C
# [50] = tested on: CCRF-CEM
# [51] = tested on: NCI-H460
# [52] = tested on: MDA-MB-231
# [53] = tested on: PC-3
# [54] = tested on: MDA-MB-435
# [55] = tested on: MCF7
# [56] = tested on: DU-145
# [57] = tested on: MDA-N
# [58] = tested on: SK-OV-3
# [59] = tested on: HCC 2998
# [60] = tested on: DLD-1
# [61] = tested on: UACC-62
compound,measurement,setting,value
COc1cc(-c2ccc(NC(=O)SCCC(=O)O)cc2OC)ccc1NC(=O)SCCC(=O)O,GI50,[1],> 100 µM
same,GI50,[2],65.3 µM (inactive)
same,GI50,[3],> 100 µM (inactive)
same,GI50,[4],> 100 µM (inactive)
same,GI50,[5],> 100 µM (inactive)
same,GI50,[6],> 100 µM (inactive)
same,GI50,[7],> 100 µM (inactive)
same,GI50,[8],> 100 µM (inactive)
same,GI50,[9],> 100 µM (inactive)
same,GI50,[10],24.9 µM (inactive)
same,GI50,[11],74.3 µM (inactive)
same,GI50,[12],> 100 µM (inactive)
same,GI50,[13],> 100 µM (inactive)
same,GI50,[14],> 100 µM (inactive)
same,GI50,[15],> 100 µM (inactive)
same,GI50,[16],> 100 µM (inactive)
same,GI50,[17],> 100 µM (inactive)
same,GI50,[18],> 100 µM (inactive)
same,GI50,[19],> 100 µM (inactive)
same,GI50,[20],> 100 µM (inactive)
same,GI50,[21],> 100 µM (inactive)
same,GI50,[22],> 100 µM (inactive)
same,GI50,[23],> 100 µM (inactive)
same,GI50,[24],> 100 µM (inactive)
same,GI50,[25],> 100 µM (inactive)
same,GI50,[26],> 100 µM (inactive)
same,GI50,[27],> 100 µM (inactive)
same,GI50,[28],> 100 µM (inactive)
same,GI50,[29],> 100 µM (inactive)
same,GI50,[30],> 100 µM (inactive)
same,GI50,[31],> 100 µM (inactive)
same,GI50,[32],> 100 µM (inactive)
same,GI50,[33],> 100 µM (inactive)
same,GI50,[34],> 100 µM (inactive)
same,GI50,[35],> 100 µM (inactive)
same,GI50,[36],> 100 µM (inactive)
same,GI50,[37],> 100 µM (inactive)
same,GI50,[38],> 100 µM (inactive)
same,GI50,[39],> 100 µM (inactive)
same,GI50,[40],> 100 µM (inactive)
same,GI50,[41],> 100 µM (inactive)
same,GI50,[42],> 100 µM (inactive)
same,GI50,[43],> 100 µM (inactive)
same,GI50,[44],> 100 µM (inactive)
same,GI50,[45],> 100 µM (inactive)
same,GI50,[46],> 100 µM (inactive)
same,GI50,[47],> 100 µM (inactive)
same,GI50,[48],> 100 µM (inactive)
same,GI50,[49],> 100 µM (inactive)
same,GI50,[50],98.2 µM (inactive)
same,GI50,[51],> 100 µM (inactive)
C=CCOc1cc2c(cc1C(C)c1ccc(OC)cc1)OCO2 (stereo unspecified),GI50,[1],0.489 µM
same,GI50,[2],0.176 µM (active)
same,GI50,[52],11.5 µM (inactive)
same,GI50,[3],0.813 µM (active)
same,GI50,[4],0.263 µM (active)
same,GI50,[5],0.299 µM (active)
same,GI50,[6],16.6 µM (inactive)
same,GI50,[7],0.483 µM (active)
same,GI50,[53],0.352 µM (active)
same,GI50,[8],1.46 µM (inactive)
same,GI50,[9],0.471 µM (active)
same,GI50,[10],0.196 µM (active)
same,GI50,[11],0.287 µM (active)
same,GI50,[12],0.612 µM (active)
same,GI50,[13],12.2 µM (inactive)
same,GI50,[54],0.251 µM (active)
same,GI50,[14],0.718 µM (active)
same,GI50,[15],0.628 µM (active)
same,GI50,[16],0.299 µM (active)
same,GI50,[17],0.718 µM (active)
same,GI50,[18],0.447 µM (active)
same,GI50,[19],0.67 µM (active)
same,GI50,[20],0.091 µM (active)
same,GI50,[21],> 100 µM (inactive)
same,GI50,[22],0.429 µM (active)
same,GI50,[23],0.495 µM (active)
same,GI50,[24],0.564 µM (active)
same,GI50,[25],0.655 µM (active)
same,GI50,[26],7.41 µM (inactive)
same,GI50,[27],0.598 µM (active)
same,GI50,[28],0.348 µM (active)
same,GI50,[30],> 100 µM (inactive)
same,GI50,[31],2.08 µM (inactive)
same,GI50,[32],0.583 µM (active)
same,GI50,[33],0.372 µM (active)
same,GI50,[34],0.601 µM (active)
same,GI50,[35],0.525 µM (active)
same,GI50,[36],0.807 µM (active)
same,GI50,[37],0.286 µM (active)
same,GI50,[38],0.289 µM (active)
same,GI50,[39],0.78 µM (active)
same,GI50,[40],0.421 µM (active)
same,GI50,[41],0.333 µM (active)
same,GI50,[55],0.453 µM (active)
same,GI50,[56],10.6 µM (inactive)
same,GI50,[42],0.375 µM (active)
same,GI50,[57],0.337 µM (active)
same,GI50,[43],0.647 µM (active)
same,GI50,[44],0.205 µM (active)
same,GI50,[58],0.311 µM (active)
same,GI50,[59],0.887 µM (active)
same,GI50,[45],0.624 µM (active)
same,GI50,[60],0.533 µM (active)
same,GI50,[46],4.88 µM (inactive)
same,GI50,[47],0.39 µM (active)
same,GI50,[48],0.869 µM (active)
same,GI50,[49],0.849 µM (active)
same,GI50,[61],0.416 µM (active)
same,GI50,[50],0.443 µM (active)
same,GI50,[51],0.409 µM (active)
